Peptide text beside a SMILES is read from it. * marks the point of attachment. Cbz = O=C(OCc1ccccc1)*
Tests used:
[1] = tested on: MCF-7 cells; assay: MTT cell viability assay; assay type: cell-based; settings: Homo sapiens, MCF7, cell viability data, read-out: IC50 for MTT
Protocol: Cell viability analysis. The effect of individual test agents on cell viability was assessed by using the MTT [3-(4,5-dimethylthiazol-2-yl)-2,5-diphenyl-2H-tetrazolium bromide] assay in six replicates. Cells were seeded and incubated in 96-well, flat-bottomed plates in DMEM-F12 media with 10% FBS for 24 h, and were exposed to various concentrations of test agents dissolved in DMSO (final DMSO concentration, 0.1%) in 5% FBS-supplemented DMEM-F12 medium. Controls received DMSO vehicle at a concentration equal to that of drug-treated cells. The medium was removed, replaced by 200 μl of 0.5 mg/ml of MTT in 10% FBS-containing RPMI-1640 medium, and cells were incubated in the CO2 incubator at 37° C. for 2 h. Supernatants were removed from the wells, and the reduced MTT dye was solubilized in 200 μl/well DMSO. Absorbance at 570 nm was determined on a plate reader.

[2] = tested on: cyclin D1; assay: Western blot analysis of cyclin D1 expression in MCF-7 cells; assay type: cell-based, human; settings: for IC50: western blot data, read-out: IC50 for WB; for effect of co-treatment on TG- and Δ2-TG-induced cyclin D1 ablation: with 40 μM TG or 30 μM Δ2-TG; for effect of co-treatment on TG- and Δ2-TG-induced cyclin D1 ablation / minimum concentration required for the complete ablation of cyclin D1: 24 h; for minimum concentration required for the complete ablation of cyclin D1: 5% FBS
Protocol: Western Blot Analysis. MCF-7 or MDA-MB-231 cells were seeded in 10% FBS-containing DMEM-F-12 for 24 h and treated with various agents as indicated. After individual treatments for 24 h, both the incubation medium and adherent cells in T-25 or T-75 flasks were scraped and collected by centrifugation at 2,000×g for 10 min. The pellets were recovered, placed on ice, and triturated with 20 to 50 μl of a chilled lysis buffer (M-PER® Mammalian Protein Extraction Reagent, Pierce, Rockford, Ill.) to which was added 1% protease inhibitor cocktail (set III, EMD Biosciences, Inc. San Diego, Calif.). After a 30 min-incubation on ice, the mixture was centrifuge at 16,100×g for 3 min. Two μl of the suspension was taken for protein analysis using the Bradford assay kit (Bio-Rad, Hercules, Calif.). To the remaining solution was added the same volume of 2× SDS-PAGE sample loading buffer (100 mM Tris-HCl, pH 6.8, 4% SDS, 5% β-mercaptoethanol 20% glycerol, and 0.1% bromophenol blue). The mixture was boiled for 10 min. Equal amounts of proteins were loaded onto 10% SDS-PAGE gels. After electrophoresis, protein bands were transferred to nitrocellulose membranes in a semi-dry transfer cell. The transblotted membrane was blocking with TBST [Tris-buffered saline (TBS) containing 0.1% Tween 20] containing 5% nonfat milk for 90 min, and the membrane was incubated with the appropriate primary antibody in TBST-5% nonfat milk at 4° C. overnight. After washing three times with TBST for a total of 45 min, the transblotted membrane was incubated with goat anti-rabbit or anti-mouse IgG-horseradish peroxidase conjugates (diluted 1:1000) for 1 h at room temperature and washed four times with TBST for a total of 1 h. The immunoblots were visualized by enhanced chemiluminescence.

CCc1ccc(-c2cc(/C=C3\SC(=O)NC3=O)ccc2OCC2(C)CCc3c(C)c(OCC=C(C)C)c(C)c(C)c3O2)cc1 (stereo not drawn) [TG-33]
IC50 [1]: > 50 µM
IC50 [2]: > 7.5 µM

C=CCOc1c(C)c(C)c2c(c1C)CCC(C)(COc1ccc(/C=C3\SC(=O)NC3=O)cc1Br)O2 (stereo not drawn) [TG-27]
IC50 [1]: 28 µM
IC50 [2]: > 7.5 µM

Cn1cc(C2=C(c3ccc(Cl)cc3Cl)C(=O)NC2=O)c2ccccc21 [SB216763, reference compound]
effect of co-treatment on TG- and Δ2-TG-induced cyclin D1 ablation [2]: could not rescue

COc1cc(/C=C2\SC(=O)NC2=O)cc(Br)c1OCC1(C)CCc2c(C)c(OCC=C(C)C)c(C)c(C)c2O1 (stereo not drawn) [TG-44]
IC50 [1]: 14.5 µM
IC50 [2]: > 7.5 µM

C=CCOc1c(C)c(C)c2c(c1C)CCC(C)(COc1ccc(/C=C3\SC(=O)NC3=O)c3ccccc13)O2 (stereo not drawn) [TG-53]
IC50 [1]: 14.5 µM

CC(C)=CCOc1c(C)c(C)c2c(c1C)CCC(C)(COc1ccc(/C=C3\SC(=O)NC3=O)cc1-c1ccc(C(F)(F)F)cc1)O2 (stereo not drawn) [TG-31]
IC50 [1]: > 50 µM
IC50 [2]: > 7.5 µM

CCOC(=O)C(C)(C)C(O)c1ccc(OCC2(C)CCc3c(C)c(OCC=C(C)C)c(C)c(C)c3O2)c(Br)c1 (stereo not drawn) [TG-38]
IC50 [1]: > 50 µM

CC(C)=CCOc1c(C)c(C)c2c(c1C)CCC(C)(COc1ccc(/C=C3\SC(=O)NC3=O)cc1C)O2 (stereo not drawn) [TG-17]
IC50 [1]: 14.5 µM

CC(C)=CCOc1c(C)c(C)c2c(c1C)CCC(C)(COc1ccc(/C=C3\SC(=O)NC3=O)cc1[N+](=O)[O-])O2 (stereo not drawn) [TG-35]
IC50 [1]: 38 µM

C=CCOc1c(C)c(C)c2c(c1C)CCC(C)(COc1ccc(/C=C3\SC(=O)NC3=O)cc1OC)O2 (stereo not drawn) [TG-28]
IC50 [1]: 14.5 µM

CC(C)=CCOc1c(C)c(C)c2c(c1C)CCC(C)(COc1ccc(/C=C3\SC(=O)NC3=O)cc1F)O2 (stereo not drawn) [TG-30]
IC50 [1]: 12.5 µM

CC(C)=CCOc1c(C)c(C)c2c(c1C)CCC(C)(COc1ccc(/C=C3\SC(=O)NC3=O)cc1-c1ccc(F)cc1)O2 (stereo not drawn) [TG-32]
IC50 [1]: 19.5 µM
IC50 [2]: > 7.5 µM

C=CCOc1c(C)c(C)c2c(c1C)CCC(C)(COc1c(Br)cc(/C=C3\SC(=O)NC3=O)cc1OC)O2 (stereo not drawn) [TG-54]
IC50 [1]: 17.5 µM

CC(C)=CCOc1c(C)c(C)c2c(c1C)CCC(C)(COc1ccc(/C=C3\SC(=O)NC3=O)cc1Br)O2 (stereo not drawn) [TG-88]
IC50 [1]: 14.5 µM
IC50 [2]: > 7.5 µM

C=CCOc1c(C)c(C)c2c(c1C)CCC(C)(COc1ccc(/C=C3\SC(=O)NC3=O)cc1OCC)O2 (stereo not drawn) [TG-55]
IC50 [1]: 17 µM
IC50 [2]: > 7.5 µM

Cc1c(C)c2c(c(C)c1OC(=O)CCC(=O)O)CCC(C)(COc1ccc(/C=C3\SC(=O)NC3=O)cc1)O2 (stereo not drawn) [TG-13]
IC50 [1]: > 50 µM
IC50 [2]: > 7.5 µM

CC(C)=CCOc1c(C)c(C)c2c(c1C)CCC(C)(COc1ccc(C=C(C#N)C#N)cc1Br)O2 (stereo not drawn) [TG-36]
IC50 [1]: > 50 µM
IC50 [2]: > 7.5 µM

CC1(COc2ccc(CC3SC(=O)NC3=O)cc2)CCCCC1 (stereo not drawn) [CG, ciglitazone, reference compound]
minimum concentration required for the complete ablation of cyclin D1 [2]: 50 µM

CC(C)=CCOc1c(C)c(C)c2c(c1C)CCC(C)(COc1ccc(/C=C/C(=O)O)cc1Br)O2 (stereo not drawn) [TG-37]
IC50 [1]: 34 µM
IC50 [2]: > 7.5 µM

CC(C)=CCOc1c(C)c(C)c2c(c1C)CCC(C)(COc1ccc(C(O)C(C)(C)C(=O)O)cc1Br)O2 (stereo not drawn) [TG-39]
IC50 [1]: 46 µM
IC50 [2]: > 7.5 µM

Cc1c(C)c2c(c(C)c1O)CCC(C)(COc1ccc(CC3SC(=O)NC3=O)cc1)O2 (stereo not drawn) [TG, troglitazone, reference compound]
time of complete ablation of cyclin D1 ([2]; 40 μM TG, 30 μM Δ2-TG): 24 h
minimum concentration required for the complete ablation of cyclin D1 [2]: 40 µM

CCOc1cc(/C=C2\SC(=O)NC2=O)ccc1OCC1(C)CCc2c(C)c(OCC=C(C)C)c(C)c(C)c2O1 (stereo not drawn) [TG-45]
IC50 [1]: 13 µM

C=CCOc1c(C)c(C)c2c(c1C)CCC(C)(COc1ccc(/C=C3\SC(=O)N(CC(=O)OC)C3=O)cc1)O2 (stereo not drawn) [TG-9]
IC50 [1]: > 50 µM
IC50 [2]: > 7.5 µM

COc1cc(/C=C2\SC(=O)NC2=O)ccc1OCC1(C)CCc2c(C)c(OCC=C(C)C)c(C)c(C)c2O1 (stereo not drawn) [TG-16]
IC50 [1]: 15 µM

O=C1NC(=O)/C(=C/c2ccc(OCC3CCc4ccccc4C3)cc2)S1 (stereo not drawn) [TG-15]
IC50 [1]: 37 µM

C=CCOc1c(C)c(C)c2c(c1C)CCC(C)(COc1c(C)cc(/C=C3\SC(=O)NC3=O)cc1C)O2 (stereo not drawn) [TG-52]
IC50 [1]: 10.5 µM

C=CCOc1c(C)c(C)c2c(c1C)CCC(C)(COc1ccc(/C=C3\SC(=S)NC3=O)cc1)O2 (stereo not drawn) [TG-3]
IC50 [1]: 11 µM
IC50 [2]: 3.5 µM

CC(C)=CCOc1c(C)c(C)c2c(c1C)CCC(C)(COc1ccc(/C=C3\SC(=O)NC3=O)cc1)O2 (stereo not drawn) [TG-14]
IC50 [1]: 14.5 µM
IC50 [2]: 7 µM

CC(C)C[C@@H](C=O)NC(=O)[C@H](CC(C)C)NC(=O)[C@H](CC(C)C)NC(=O)OCc1ccccc1 [MG132, reference compound] (Cbz-Leu-Leu-Leu-aldehyde)
effect of co-treatment on Δ2-TG-6 cyclin D1 ablation ([2]; FIG. 8C): could be blocked
effect of co-treatment on TG- and Δ2-TG-induced cyclin D1 ablation [2]: effective in rescuing

CC(C)=CCOc1c(C)c(C)c2c(c1C)CCC(C)(COc1ccc(/C=C3\SC(=O)NC3=O)c3ccccc13)O2 (stereo not drawn) [TG-43]
IC50 [1]: 14.5 µM

Cc1c(C)c2c(c(C)c1OCc1ccccc1)CCC(C)(COc1ccc(/C=C3\SC(=O)NC3=O)cc1)O2 (stereo not drawn) [TG-12]
IC50 [1]: 16.7 µM

Cc1c(C)c2c(c(C)c1OC/C=C/c1ccccc1)CCC(C)(COc1ccc(/C=C3\SC(=O)NC3=O)cc1Br)O2 (stereo not drawn) [TG-11]
IC50 [1]: 28.5 µM
IC50 [2]: > 7.5 µM

C=CCOc1c(C)c(C)c2c(c1C)CCC(C)(COc1ccc(/C=C3\SC(=O)NC3=O)cc1C)O2 (stereo not drawn) [TG-29]
IC50 [1]: 23.5 µM

CC(C)=CCOc1c(C)c(C)c2c(c1C)CCC(C)(COc1c(Br)cc(/C=C3\SC(=O)NC3=O)cc1Br)O2 (stereo not drawn) [TG-34]
IC50 [1]: 15.5 µM

CC[C@H](C)[C@H](NC(=O)[C@H]([C@@H](C)CC)N(C)C(C)=O)C(=O)N[C@H](C(=O)N[C@@H](CC(C)C)C(=O)[C@@]1(C)CO1)[C@@H](C)O [epoxomicin, reference compound]
effect of co-treatment on TG- and Δ2-TG-induced cyclin D1 ablation [2]: effective in rescuing

O=C(Nc1ccccc1)c1cc([N+](=O)[O-])ccc1Cl [GW9962, reference compound]
effect of co-treatment on TG-mediated cyclin D1 down-regulation ([2]; concentrations three orders of magnitude higher than the IC50 in PPARγ binding): did not prevent
effect on cyclin D1 expression ([2]; high doses / comparable concentrations): no appreciable effect

C=CCOc1c(C)c(C)c2c(c1C)CCC(C)(COc1cccc(/C=C3\SC(=O)NC3=O)c1)O2 (stereo not drawn) [TG-51]
IC50 [1]: 40 µM

CC(C)=CCOc1c(C)c(C)c2c(c1C)CCC(C)(COc1ccc(C=C(C(=O)O)C(=O)O)cc1Br)O2 (stereo not drawn) [TG-42]
IC50 [1]: > 50 µM
IC50 [2]: > 7.5 µM

Cc1c(C)c2c(c(C)c1OC/C=C/c1ccccc1)CCC(C)(COc1ccc(/C=C3\SC(=O)NC3=O)cc1)O2 (stereo not drawn) [TG-10]
IC50 [1]: 19 µM
IC50 [2]: > 7.5 µM

CC(C)=CCOc1c(C)c(C)c2c(c1C)CCC(C)(COc1ccc(/C=C3\SC(=S)NC3=O)c3ccccc13)O2 (stereo not drawn) [TG-46]
IC50 [1]: 37.3 µM

CC(=O)N[C@@H](CSC(=O)[C@]1([C@@H](O)C(C)C)NC(=O)[C@H](C)[C@@H]1O)C(=O)O [lactacystin, reference compound]
effect of co-treatment on TG- and Δ2-TG-induced cyclin D1 ablation [2]: effective in rescuing

CCOC(=O)C(=Cc1ccc(OCC2(C)CCc3c(C)c(OCC=C(C)C)c(C)c(C)c3O2)c(Br)c1)C(=O)OCC (stereo not drawn) [TG-41]
IC50 [1]: > 50 µM
IC50 [2]: > 7.5 µM

Source: US7566787B2, “Small molecule cyclin D1 ablative agents” (The Ohio State University, priority 2004, dated 2009)
